Test results as given in US8592486B2, “Compounds for inflammation and immune-related uses” (Synta Pharmaceuticals Corp., priority 2005, dated 2013).
Where a name gives a salt, the structure may show the parent alone.

Test system: IL-2 production
Test: Inhibition of IL-2 production in PHA-activated Jurkat cells (ELISA)
Assay type: cell-based, human
Details: Homo sapiens, Jurkat, 20 h, Jurkat cells, PHA 2.5 μg/mL, 20 hours, IL-2 ELISA; read-out: IC50 (inhibition of IL-2 production)
Method: Jurkat cells were placed in a 96 well plate (0.5 million cells per well in 1% FBS medium) then a test compound of this invention was added at different concentrations. After 10 minutes, the cells were activated with PHA (final concentration 2.5 μg/mL) and incubated for 20 hours at 37° C. under CO2. The final volume was 200 μL. Following incubation, the cells were centrifuged and the supernatants collected and stored at −70° C. prior to assaying for IL-2 production. A commercial ELISA kit (IL-2 Eli-pair, Diaclone Research, Besancon, France) was used to detect production of IL-2, from which dose response curves were obtained. The IC50 value was calculated as the concentration at which 50% of maximum IL-2 production after stimulation was inhibited versus a non-stimulation control.

IC50 | Compound
19 nM | COc1ncc(Cl)cc1-c1ccc(NC(=O)c2ccncc2F)cc1 [Compound 19, 3-Fluoro-N-[4-(5-chloro-2-methoxy-pyridin-3-yl)-phenyl]-isonicotinamide]
3 nM | Cc1ccc(-c2ncco2)cc1-c1ccc(NC(=O)c2ccncc2F)cc1 [Compound 10, 3-Fluoro-N-(2′-methyl-5′-oxazol-2-yl-biphenyl-4-yl)-isonicotinamide]
26 nM | Cc1ccc(N2CCOCC2)cc1-c1ccc(NC(=O)c2c(F)cccc2F)cc1 [Compound 43, 2,6-Difluoro-N-[2′-methyl-5′-(morpholino-4-yl)-biphenyl-4-yl]-benzamide]
3 nM | Cc1ccc(-c2ccncc2)cc1-c1ccc(NC(=O)c2c(F)cccc2F)cc1 [Compound 30, 2,6-Difluoro-N-[2′-methyl-5′-(pyridine-4-yl)-biphenyl-4-yl]-benzamide]
13 nM | Cc1cnccc1C(=O)Nc1ccc(-c2cc(-c3nncs3)ccc2C)cc1 [Compound 60, 3-Methyl-N-[5′-([1,3,4]thiadiazol-2-yl)-2′-methyl-biphenyl-4-yl]-isonicotinamide]
27 nM | Cc1ccc(-c2ncnn2C)cc1-c1ccc(NC(=O)c2ccncc2F)cc1 [Compound 67, 3-Fluoro-N-[2′-methyl-5′-(2-methyl-2H-[1,2,4]triazol-3-yl)-biphenyl-4-yl]-isonicotinamide]
6 nM | Cc1ccc(-c2nncs2)cc1-c1ccc(NC(=O)c2c(F)cncc2F)cc1 [Compound 53, 3,5-Difluoro-N-[5′-([1,3,4]thiadiazol-2-yl)-2′-methyl-biphenyl-4-yl]-isonicotinamide]
3 nM | Cc1ccc(-c2ncco2)cc1-c1ccc(NC(=O)c2c(F)cncc2F)cc1 [Compound 11, 3,5-Difluoro-N-(2′-methyl-5′-oxazol-2-yl-biphenyl-4-yl)-isonicotinamide]
23 nM | COc1ccc(-c2ncco2)cc1-c1ccc(NC(=O)c2ccncc2C)cc1 [Compound 50, 3-Methyl-N-[5′-(oxazol-2-yl)-2′-methoxy-biphenyl-4-yl]-isonicotinamide]
53 nM | Cc1ccc(-c2nnc(N(C)C)s2)cc1-c1ccc(NC(=O)c2c(F)cccc2F)cc1 [Compound 64, 2,6-Difluoro-N-{2′-methyl-5′-[5-(N,N-dimethylamino)-[1,3,4]thiadiazol-2-yl]-biphenyl-4-yl}-benzamide]
> 1000 nM | Cc1ccc(-c2noc(=O)[nH]2)cc1-c1ccc(NC(=O)c2c(F)cccc2F)cc1 [Compound 42, 2,6-Difluoro-N-[2′-methyl-5′-(5-oxo-4,5-dihydro-[1,2,4]-oxadiazol-3-yl)-biphenyl-4-yl]-benzamide]
4 nM | COc1ccc(-c2cnco2)cc1-c1ccc(NC(=O)c2c(F)cccc2F)cc1 [Compound 27]
11 nM | Cc1cc(-c2ccc(C)c(-c3ccc(NC(=O)c4c(F)cccc4F)cc3)c2)[nH]n1 [Compound 37, 2,6-Difluoro-N-[2′-methyl-5′-(3-methyl-1H-pyrazol-5-yl)-biphenyl-4-yl]-benzamide]
3 nM | Cc1ccc(-c2nncs2)cc1-c1ccc(NC(=O)c2c(F)cccc2F)cc1 [Compound 59, 2,6-Difluoro-N-[2′-methyl-5′-([1,3,4]thiadiazol-2-yl)-biphenyl-4-yl]-benzamide]
13 nM | Cc1cnccc1C(=O)Nc1ccc(-c2cc(-c3nnco3)ccc2C)cc1 [Compound 70, 3-Methyl-N-[2′-methyl-5′-([1,3,4]oxadiazol-2-yl)-biphenyl-4-yl]-isonicotinamide]
19 nM | Cc1ccc(-c2nnc(N)s2)cc1-c1ccc(NC(=O)c2c(F)cccc2F)cc1 [Compound 62, 2,6-Difluoro-N-[2′-methyl-5′-(5-amino-[1,3,4]thiadiazol-2-yl)-biphenyl-4-yl]-benzamide]
3 nM | O=C(Nc1ccc(-c2cc(-c3nccs3)ccc2Cl)cc1)c1c(F)cncc1F [Compound 57, 3,5-Difluoro-N-[5′-(thiazol-2-yl)-2′-chloro-biphenyl-4-yl]-isonicotinamide]
12 nM | Cc1cnccc1C(=O)Nc1ccc(-c2cc(-c3nnnn3C)ccc2C)cc1 [Compound 49, 3-Methyl-N-[2′-methyl-5′-(1-methyl-1H-tetrazol-5-yl)-biphenyl-4-yl]-isonicotinamide]

IC50 | Compound
3 nM | Cc1csc(-c2ccc(C)c(-c3ccc(NC(=O)c4c(F)cccc4F)cc3)c2)n1 [Compound 38, 2,6-Difluoro-N-[2′-methyl-5′-(4-methyl-thiazol-2-yl)-biphenyl-4-yl]-benzamide]
59 nM | COc1ccc(-c2ccco2)cc1-c1ccc(NC(=O)c2ccncc2C)cc1 [Compound 47, 3-Methyl-N-[2′-methoxy-5′-(furan-2-yl)-biphenyl-4-yl]-isonicotinamide]
8 nM | Cc1ccc(-c2ncnn2C)cc1-c1ccc(NC(=O)c2c(F)cccc2F)cc1 [Compound 66, 2,6-Difluoro-N-[2′-methyl-5′-(2-methyl-2H-[1,2,4]triazol-3-yl)-biphenyl-4-yl]-benzamide]
12 nM | Cc1ccc(-c2nccs2)cc1-c1ccc(NC(=O)c2ccncc2F)cc1 [Compound 54, 3-Fluoro-N-[5′-(thiazol-2-yl)-2′-methyl-biphenyl-4-yl]-isonicotinamide]
2 nM | O=C(Nc1ccc(-c2cc(-c3nccs3)ccc2Cl)cc1)c1c(F)cccc1F [Compound 56, 2,6-Difluoro-N-[2′-chloro-5′-(thiazol-2-yl)-biphenyl-4-yl]-benzamide]
> 1000 nM | CSc1nnc(-c2ccc(C)c(-c3ccc(NC(=O)c4ccncc4F)cc3)c2)n1C [Compound 73, 3-Fluoro-N-[2′-methyl-5′-(4-methyl-5-methylsulfanyl-4H-[1,2,4]triazol-3-yl)-biphenyl-4-yl]-isonicotinamide]
320 nM | Cc1cnccc1C(=O)Nc1ccc(-c2cc(-c3ncco3)ccc2N(C)C)cc1 [Compound 48, 3-Methyl-N-[5′-(oxazol-2-yl)-2′-(N,N-dimethylamino)-biphenyl-4-yl]-isonicotinamide]
> 1000 nM | CSc1nnc(-c2ccc(C)c(-c3ccc(NC(=O)c4c(F)cccc4F)cc3)c2)n1C [Compound 72, 2,6-Difluoro-N-[2′-methyl-5′-(4-methyl-5-methylsulfanyl-4H-[1,2,4]triazol-3-yl)-biphenyl-4-yl]-benzamide]
13 nM | Cc1ccc(-c2nc(C(F)(F)F)cs2)cc1-c1ccc(NC(=O)c2c(F)cccc2F)cc1 [Compound 39]
11 nM | Cc1csc(-c2ccc(C)c(-c3ccc(NC(=O)c4ccncc4C)cc3)c2)n1 [Compound 40, 3-Methyl-N-[5′-(4-methyl-thiazol-2-yl)-2′-methyl-biphenyl-4-yl]-isonicotinamide]
6 nM | COc1ccc(-c2ncco2)cc1-c1ccc(NC(=O)c2c(F)cccc2F)cc1 [Compound 13, 2,6-Difluoro-N-(2′-methoxy-5′-oxazol-2-yl-biphenyl-4-yl)-benzamide]
> 1000 nM | Cc1ccc(-c2nnc(N(C)C)s2)cc1-c1ccc(N(C)C(=O)c2c(F)cccc2F)cc1 [Compound 63, 2,6-Difluoro-N-{2′-methyl-5′-[5-(N,N-dimethylamino)-[1,3,4]thiadiazol-2-yl]-biphenyl-4-yl}-N-methyl-benzamide]
50 nM | O=C(Nc1ccc(-c2cc(-c3ncco3)ccc2Cl)cc1)c1c(F)cncc1F [Compound 45, 3,5-Difluoro-N-[5′-(oxazol-2-yl)-2′-chloro-biphenyl-4-yl]-isonicotinamide]
11 nM | COc1ccc(-c2ncco2)cc1-c1ccc(NC(=O)c2c(F)cncc2F)cc1 [Compound 51, 3,5-Difluoro-N-[5′-(oxazol-2-yl)-2′-methoxy-biphenyl-4-yl]-isonicotinamide]
8 nM | Cc1cnccc1C(=O)Nc1ccc(-c2cc(-c3cccnc3)ccc2C)cc1 [Compound 20, 3-Methyl-N-[5′-(pyridin-3-yl)-2′-methyl-biphenyl-4-yl]-isonicotinamide]
18 nM | Cc1ccc(-c2ccc[nH]2)cc1-c1ccc(NC(=O)c2c(F)cccc2F)cc1 [Compound 41, 2,6-Difluoro-N-[2′-methyl-5′-(1H-pyrrol-2-yl)-biphenyl-4-yl]-benzamide]
4 nM | Cc1cc(-c2ccc(C)c(-c3ccc(NC(=O)c4ccncc4C)cc3)c2)on1 [Compound 36, 3-Methyl-N-[5′-(3-methyl-isoxazol-5-yl)-2′-methyl-biphenyl-4-yl]-isonicotinamide]

Compound | IC50
Cc1cnccc1C(=O)Nc1ccc(-c2cc(-c3ccno3)ccc2C)cc1 [Compound 32, 3-Methyl-N-[5′-(isoxazol-5-yl)-2′-methyl-biphenyl-4-yl]-isonicotinamide] | 4 nM

Same assay, conditions: Homo sapiens, Jurkat, 20 h, read-out: IC50 (inhibition of IL-2 production)

Compound | IC50
Cc1ccc(-c2nnn[nH]2)cc1-c1ccc(NC(=O)c2c(F)cccc2F)cc1 [Compound 65, 2,6-Difluoro-N-[2′-methyl-5′-(1H-tetrazol-5-yl)-biphenyl-4-yl]-benzamide, sodium salt] | > 1000 nM

Same assay, conditions: Homo sapiens; Jurkat cells, PHA 2.5 μg/mL, 20 hours, IL-2 ELISA; read-out: IC50 (inhibition of IL-2 production)

Compound | IC50
Cc1cnccc1C(=O)Nc1ccc(-c2cc(-c3ccno3)ccc2C)cc1 [Compound 34, 3-Methyl-N-[5′-(isoxazol-5-yl)-2′-methyl-biphenyl-4-yl]-isonicotinamide, HCl salt] | 11 nM
Cc1cnccc1C(=O)Nc1ccc(-c2cc(-c3ncco3)ccc2C)cc1 [Compound 7, 3-Methyl-N-(2′-methyl-5′-oxazol-2-yl-biphenyl-4-yl)-isonicotinamide, hydrochloride] | 8 nM
Cc1cnccc1C(=O)Nc1ccc(-c2cc(-c3cnco3)ccc2C)cc1 [Compound 29, 3-Methyl-N-[5′-(oxazol-5-yl)-2′-methyl-biphenyl-4-yl]-isonicotinamide, HCl salt] | 9 nM
